In patent US8383084B2, “Destruction of spores through glycoconjugate enhanced phagocytosis” (priority 2006, dated 2013):
Like-named read-outs stand apart in the source and are kept apart here.

Legend:
B. cereus spores [1] = type: cell-based, Bacillus cereus ATCC 11778
murine macrophages [2] = assay: Comet assay (tail vs. head) and phagocyte diameter; type: cell-based, C57BL/6 mice; details: for diameter of phagocytes upon uptaking glycoconjugate-coated spores: compared to macrophages only, spores only, glycoconjugate alone; for uptake of coated spores and spore-induced cell death: glycoconjugate-coated spores, B; for uptake of coated spores and spore-induced cell death / effect of glycoconjugate-treated spores on murine macrophages (Comet assay): FIG. 10A; for diameter of phagocytic cells, glycoconjugate alone: glycoconjugates alone, dilutions 10^0, 10^-2, 10^-4; for effect of glycoconjugate-treated spores on murine macrophages (Comet assay): macrophages exposed to treated spores, 10B; for effect of glycoconjugate alone on macrophages (Comet assay): macrophages treated with glycoconjugate only, FIG. 10E, 10F
Procedure: Possible induction of apoptosis was determined by Comet assay (FIG. 10) using Trevigen (Gaithersburg, Md.) Comet assay kit and analyzed under epifluorescence microscope (FIG. 10). Nuclei with damaged DNA have the appearance of a comet with a bright head and a tail, whereas nuclei with undamaged DNA appear round, with no tail. Ration tail vs. head was measured in order to determine apoptosis (FIG. 10).

murine macrophages [3] = system: murine macrophages
murine macrophages [4] = type: cell-based, C57BL/6 mice
murine macrophages [5] = type: cell-based, C57BL/6 mice; remark: listed apart in the source
B. cereus spores [6] = type: cell-based, Bacillus cereus ATCC 11778; remark: listed apart in the source
human macrophages = type: cell-based

Substance	destruction of spores (B. cereus spores [1])	destruction of the spores (in words) (B. cereus spores [1])	dose at which 50% of the spores were killed (B. cereus spores [1])	diameter of phagocytes upon uptaking glycoconjugate-coated spores (murine macrophages [2])	uptake of coated spores and spore-induced cell death (murine macrophages [2])	diameter of phagocytic cells, glycoconjugate alone (murine macrophages [2])	effect of glycoconjugate-treated spores on murine macrophages (Comet assay) (murine macrophages [2])	effect of glycoconjugate alone on macrophages (Comet assay) (murine macrophages [2])	macrophage viability (murine macrophages [3])	induction of macrophage NO production (murine macrophages [4])	macrophage NO production (extent) (murine macrophages [4])	LDH release/production (murine macrophages [5])	destruction of spores, following spores' exposure (B. cereus spores [6])	destruction of spores, prior to exposure (B. cereus spores [6])	destruction of the spores (in words) (B. cereus spores [6])	spores killed, following exposure condition (B. cereus spores [6])	spores killed, prior to and during exposure conditions (B. cereus spores [6])	human macrophage NO production (human macrophages)
Galα1-3 GalNAcα-PAA-flu [Galα1-3GalNAcα-PAA-flu]	89.4%	almost total destruction of the spores	1 pg/mL	increased	stimulates the uptake of coated spores and protect from spore-induced cell death	do not affect the diameter of phagocytic cells	pro-apoptotic effects	do not induce death	≤ 97.8%	induced macrophage NO production	doubled	8.9%	–	–	–	–	–	–
GalNAcα1-3 GalNAcβ-PAA-flu [GalNAcα1-3GalNAcβ-PAA-flu]	86.4%	–	100 pg/mL	increased	stimulates the uptake of coated spores and protect from spore-induced cell death	do not affect the diameter of phagocytic cells	pro-apoptotic effects	do not induce death	up to 87%	induced macrophage NO production	less stimulatory	11.9%	76.4%	65.5%	almost total destruction of the spores	~50%	70-80%	stimulate human macrophage nitric oxide (NO) production
